What is called Kd is the free concentration of one partner at which half of the binding sites on the other are occupied at equilibrium, for simple one-to-one binding.

Assay [1] concerns YAP localization. Nature of the assay: YAP cytoplasmic/nuclear localization (cell fractionation and immunofluorescence). The class given is cell-based, human. As to conditions: 50 nM, 6 h. As to the method:
Levels of total YAP were determined via ELISA. […] Immunoprecipitates were immunoblotted for the indicated proteins. […] Cells were treated with the indicated concentrations of inhibitor for 18 h and mRNA extracted for real time RT-PCR analyses. Measurements were performed in quadruplicate and means and+S.D. are shown. […] […] Cytoplasmic versus nuclear material was subsequently immunoblotted for the indicated proteins. […] Values in top right corner of panels correspond to the percentage of nuclear localized YAP. Cells were grown on coverslips and treated with NSC682769. Cells were permeabilized and stained using primary antibody to YAP1 and FITC-conjugated secondary. Nuclei were stained with DAPI. Scale bar, 20 μm.
Surface plasmon resonance (SPR), ELISA, YAP-TEAD reporter activity, cellular fractionation, and immunofluorescence analyses. SPR experiments were carried out on a Nicoya OpenSPR™ instrument using immobilized YAP on a carboxyl-coated sensor. Binding was observed as the change in response units (RU) as analyte was injected at a flow rate of 10 μl/min at 25° C. TraceDrawer™ was used for kinetic analyses. The PathScan® total-YAP ELISA kit was obtained from Cell Signaling and used according to the manufacturer's instructions. YAP-TEAD reporter activity was determined as previously described (Kim N G, Gumbiner B M (2015) J Cell Biol 210: 503-515). HOP-flash contains multiple copies of wild-type TEAD-binding sites with a minimal promoter upstream of a luciferase reporter gene. Luciferase activity was measured via a luciferase assay system (Promega). Nuclear-cytoplasmic fractionation was performed according to Dignam et al. (Dignam J D, et al. (1983) Nucleic Acids Res 11: 1475-1489). Briefly, the buffers used were kept on ice and centrifugations were done at 4° C. with soft braking. After a single wash with PBS, cells were scraped with PBS (containing 1 mM DTT and 1× protease inhibitor) and harvested by centrifugation at 1000×g for 15 min. […] Cell lysis was monitored by trypan blue staining. […]

The target of assay [2] is T1, full-length YAP (Homo sapiens, UniProt P46937).
T1 construct: made in house; host or cells: bacterial (inferred)
T1 sequence (P46937 whole entry): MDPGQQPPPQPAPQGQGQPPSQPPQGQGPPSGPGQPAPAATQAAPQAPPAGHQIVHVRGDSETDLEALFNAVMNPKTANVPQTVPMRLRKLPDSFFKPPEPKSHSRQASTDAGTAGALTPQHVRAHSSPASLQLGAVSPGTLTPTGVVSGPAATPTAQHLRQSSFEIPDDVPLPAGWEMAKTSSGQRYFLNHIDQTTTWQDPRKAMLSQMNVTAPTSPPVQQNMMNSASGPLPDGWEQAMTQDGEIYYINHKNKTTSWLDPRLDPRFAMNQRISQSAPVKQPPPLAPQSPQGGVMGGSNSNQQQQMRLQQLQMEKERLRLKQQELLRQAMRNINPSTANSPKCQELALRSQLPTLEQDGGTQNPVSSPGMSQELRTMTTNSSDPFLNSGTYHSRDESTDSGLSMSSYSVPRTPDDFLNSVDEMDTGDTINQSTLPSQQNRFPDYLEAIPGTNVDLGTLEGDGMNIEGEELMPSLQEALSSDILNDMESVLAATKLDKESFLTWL
Nature of the assay: Surface plasmon resonance of NSC682769 analyte on immobilized full-length YAP. As to conditions: SPR, 25° C., read-out: Kd from steady-state binding. On the procedure: FIGS. 1A-G show the identification of a YAP1-TEAD1 binding interface inhibitor. […] The Gal4 DBD was fused to residues 50-171 of human YAP1 and the Gal4 AD was fused to residues 194-411 of human TEAD1. These fusions were expressed in yeast containing reporters harboring Gal4 upstream activating sequences (UAS). […] Yeast expressing either p53-DBD and SV40 large T antigen-AD fusions or YAP1-DBD and TEAD1-AD fusions were plated on selective media. Compounds were pinned onto the plate surfaces by robotic transfer and subsequently examined for halo formation (indicated by red circles). Compounds inhibiting YAP1-TEAD1 mediated growth on selective media while having no effect on p53-T antigen mediated yeast growth were considered specific. […] Pull-down products were analyzed by SDS-PAGE and silver staining. […] Raw binding sensorgrams obtained at each concentration were fitted to a 1:1 binding model and Kon, Koff and KD were calculated by simultaneous non-linear regression analyses.
Surface plasmon resonance (SPR), ELISA, YAP-TEAD reporter activity, cellular fractionation, and immunofluorescence analyses. […] YAP-TEAD reporter activity was determined as previously described (Kim N G, Gumbiner B M (2015) J Cell Biol 210: 503-515). […] Luciferase activity was measured via a luciferase assay system (Promega). […] Cell lysis was monitored by trypan blue staining. […]
(In general: Surface plasmon resonance follows binding to a sensor surface in real time, without labels.)

As for `COc1ccc(-c2cc(-c3ccccc3)nc3c2CC(=O)Nc2ccccc2-3)cc1OC` [NSC682769], the “Relative amount of nuclear YAP (immunofluorescence)” value in assay [1] (GBM39 cells, untreated 53%) is 19%; in assay [1] (LN229 cells, untreated 67%), 26%. Also, the “Nuclear versus cytoplasmic YAP by cell fractionation” value in assay [1] (LN229 or GBM39 cells) is “reduction of nuclear YAP and a concomitant accumulation of cytoplasmic YAP”. Further, the Kd in assay [2] was 738 nM.

The values above are taken from US20240108634A1, “COMPOSITIONS AND METHODS FOR INHIBITING YAP” (The United States Government as represented by the …, priority 2021, published 2024).
